Measured values taken from patent publication US20250332178A1, “METHODS OF TREATING MYCOBACTERIAL INFECTIONS USING TETRACYCLINE COMPOUNDS” (priority 2018, published 2025).
Converted amounts (≈) assume the structure as drawn.

Legend:
[1] = tested on: slow-growing NTM isolates; assay: MIC (CLSI broth dilution), all slow-growing NTM isolates; format: cell-based, nontuberculous mycobacteria; conditions: all slow-growing NTM isolates
[2] = tested on: M. arupense; assay: MIC (CLSI broth dilution), slow-growing NTM isolates; format: cell-based; conditions: isolate 11, Other
[3] = tested on: M. simiae; assay: as above; format: cell-based

Structure (SMILES)	MIC50 [1] [µg/mL]	MIC90 [1] [µg/mL]	MIC [2] [µg/mL]	MIC ([3]; isolate 13, Other) [µg/mL]	MIC ([3]; isolate 14, Other) [µg/mL]	MIC ([3]; isolate 15, Other) [µg/mL]
NCC[C@H](O)C(=O)N[C@@H]1C[C@H](N)[C@@H](O[C@H]2O[C@H](CN)[C@@H](O)[C@H](O)[C@H]2O)[C@H](O)[C@H]1O[C@H]1O[C@H](CO)[C@@H](O)[C@H](N)[C@H]1O [Amikacin, amikacin]	16 (≈ 27.3 µM)	32 (≈ 54.6 µM)	8 (≈ 13.7 µM)	32 (≈ 54.6 µM)	16 (≈ 27.3 µM)	16 (≈ 27.3 µM)
C[C@H]1c2cccc(O)c2C(=O)C2=C(O)[C@]3(O)C(=O)C(C(N)=O)=C(O)[C@@H](N(C)C)[C@@H]3[C@@H](O)[C@@H]21 [Doxycycline, doxycycline]			16 (≈ 36 µM)	>16	>16	>16
